Source: US20100168176A1, “NOVEL COMPOUNDS, PHARMACEUTICAL COMPOSITIONS CONTAINING SAME, AND METHODS OF USE FOR SAME” (FASGEN LLC, priority 2006, published 2010)

Legend:
[1] = Weight loss screen in Balb/C mice; format: in vivo; settings: 60 mg/kg intraperitoneally, day 1
Experimental: Weight Loss Screen for Novel FAS Inhibitors
Balb/C mice (Jackson Labs) are utilized for the initial weight loss screening. Animals are housed in temperature and 12 hour day/night cycle rooms and fed mouse chow and water ad lib. Three mice are utilized for each compound tested with vehicle controls in triplicate per experiment. For the experiments, mice are housed separately for each compound tested three mice to a cage. Compounds are diluted in DMSO at 10 mg/ml and mice are injected intraperitoneally with 60 mg/kg in approximately 100 μl of DMSO or with vehicle alone. Mice are observed and weighed daily; average weights and standard errors are computed with Excel (Microsoft). The experiment continues until treated animals reach their pretreatment weights.

purified human FAS = molecular target: T1, purified human FAS (Homo sapiens, UniProt P49327); assay: FAS enzymatic activity (malonyl-CoA dependent NADPH oxidation, OD340); format: biochemical; settings: purified human FAS from ZR-75-1 cells
T1 construct: Human FAS was purified from cultured ZR-75-1 human breast cancer cells; endogenous in cells; host or cells: ZR-75-1 human breast cancer cells (ATCC); Purified by hypotonic lysis, PEG precipitations and Mono Q anion exchange
T1 sequence (P49327 whole entry): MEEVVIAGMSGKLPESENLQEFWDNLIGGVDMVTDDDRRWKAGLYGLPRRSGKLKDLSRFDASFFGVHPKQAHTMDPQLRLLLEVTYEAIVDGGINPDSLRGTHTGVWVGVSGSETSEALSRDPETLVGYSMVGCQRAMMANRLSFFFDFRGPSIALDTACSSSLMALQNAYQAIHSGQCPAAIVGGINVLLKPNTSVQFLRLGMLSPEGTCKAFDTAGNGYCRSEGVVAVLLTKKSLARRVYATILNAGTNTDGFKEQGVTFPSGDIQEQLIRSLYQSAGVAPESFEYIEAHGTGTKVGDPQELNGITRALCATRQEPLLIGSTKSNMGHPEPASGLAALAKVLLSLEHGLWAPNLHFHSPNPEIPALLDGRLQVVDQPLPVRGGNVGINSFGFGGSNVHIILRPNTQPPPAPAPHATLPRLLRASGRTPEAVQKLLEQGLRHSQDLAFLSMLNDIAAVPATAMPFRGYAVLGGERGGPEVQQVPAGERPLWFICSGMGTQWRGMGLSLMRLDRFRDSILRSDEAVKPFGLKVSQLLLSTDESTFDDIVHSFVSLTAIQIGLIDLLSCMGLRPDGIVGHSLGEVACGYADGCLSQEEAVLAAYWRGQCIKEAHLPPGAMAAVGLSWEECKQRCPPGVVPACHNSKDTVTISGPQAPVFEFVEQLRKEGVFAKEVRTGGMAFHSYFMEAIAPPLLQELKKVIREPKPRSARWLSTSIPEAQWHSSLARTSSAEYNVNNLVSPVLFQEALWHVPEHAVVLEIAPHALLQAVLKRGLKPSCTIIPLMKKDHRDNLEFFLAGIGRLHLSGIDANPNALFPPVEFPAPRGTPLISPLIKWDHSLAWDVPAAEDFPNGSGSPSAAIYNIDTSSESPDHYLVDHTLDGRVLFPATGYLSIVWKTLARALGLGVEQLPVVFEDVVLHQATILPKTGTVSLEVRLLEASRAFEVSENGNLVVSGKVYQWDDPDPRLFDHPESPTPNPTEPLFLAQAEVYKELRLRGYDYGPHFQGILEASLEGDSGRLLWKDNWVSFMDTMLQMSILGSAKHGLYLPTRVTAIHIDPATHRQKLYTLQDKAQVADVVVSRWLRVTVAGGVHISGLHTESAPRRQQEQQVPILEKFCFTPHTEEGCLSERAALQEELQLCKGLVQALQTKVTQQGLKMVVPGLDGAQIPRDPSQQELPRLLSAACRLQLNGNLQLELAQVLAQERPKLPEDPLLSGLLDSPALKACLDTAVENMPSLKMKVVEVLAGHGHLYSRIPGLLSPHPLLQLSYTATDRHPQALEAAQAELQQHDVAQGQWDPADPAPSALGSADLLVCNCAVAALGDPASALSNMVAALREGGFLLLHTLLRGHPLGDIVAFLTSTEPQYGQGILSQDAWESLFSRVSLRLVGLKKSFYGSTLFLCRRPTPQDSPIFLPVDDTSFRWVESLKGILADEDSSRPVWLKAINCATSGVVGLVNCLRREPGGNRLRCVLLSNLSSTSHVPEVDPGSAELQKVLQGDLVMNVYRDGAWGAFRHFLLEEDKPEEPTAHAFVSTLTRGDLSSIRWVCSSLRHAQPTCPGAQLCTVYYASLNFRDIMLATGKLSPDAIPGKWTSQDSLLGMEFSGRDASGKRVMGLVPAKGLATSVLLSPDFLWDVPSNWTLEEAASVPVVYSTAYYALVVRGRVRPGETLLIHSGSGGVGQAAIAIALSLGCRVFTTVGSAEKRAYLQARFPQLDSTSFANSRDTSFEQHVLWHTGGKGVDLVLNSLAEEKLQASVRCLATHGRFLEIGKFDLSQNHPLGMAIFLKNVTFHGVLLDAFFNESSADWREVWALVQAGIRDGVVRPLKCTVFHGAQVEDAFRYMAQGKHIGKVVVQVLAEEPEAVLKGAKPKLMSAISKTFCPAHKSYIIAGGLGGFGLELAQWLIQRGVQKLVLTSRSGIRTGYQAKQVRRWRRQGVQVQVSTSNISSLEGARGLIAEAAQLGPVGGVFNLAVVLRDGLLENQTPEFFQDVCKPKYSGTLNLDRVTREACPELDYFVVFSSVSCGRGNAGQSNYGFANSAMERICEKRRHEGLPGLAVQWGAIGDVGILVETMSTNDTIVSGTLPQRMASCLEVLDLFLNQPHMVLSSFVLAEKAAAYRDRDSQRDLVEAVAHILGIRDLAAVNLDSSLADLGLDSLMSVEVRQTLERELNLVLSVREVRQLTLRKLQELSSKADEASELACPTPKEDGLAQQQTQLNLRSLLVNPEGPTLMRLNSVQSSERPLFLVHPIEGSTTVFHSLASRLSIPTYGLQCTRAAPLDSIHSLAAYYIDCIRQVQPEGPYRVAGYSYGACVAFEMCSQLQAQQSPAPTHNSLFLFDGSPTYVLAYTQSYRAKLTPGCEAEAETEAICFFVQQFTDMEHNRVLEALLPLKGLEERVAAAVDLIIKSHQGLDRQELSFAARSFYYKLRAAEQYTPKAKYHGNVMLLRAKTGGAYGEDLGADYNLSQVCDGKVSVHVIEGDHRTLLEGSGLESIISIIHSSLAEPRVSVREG
Experimental: Purification of FAS from ZR-75-1 Human Breast Cancer Cells.
Human FAS was purified from cultured ZR-75-1 human breast cancer cells obtained from the American Type Culture Collection. The procedure, adapted from Linn et al., 1981, and Kuhajda et al., 1994, utilizes hypotonic lysis, successive polyethyleneglycol (PEG) precipitations, and anion exchange chromatography. ZR-75-1 cells are cultured at 37° C. with 5% CO2 in RPMI culture medium with 10% fetal bovine serum, penicillin and streptomycin.
Ten T150 flasks of confluent cells are lysed with 1.5 ml lysis buffer (20 mM Tris-HCl, pH 7.5, 1 mM EDTA, 0.1 mM phenylmethanesulfonyl fluoride (PMSF), 0.1% Igepal CA-630) and dounce homogenized on ice for 20 strokes. The lysate is centrifuged in JA-20 rotor (Beckman) at 20,000 rpm for 30 minutes at 4° C. and the supernatant is brought to 42 ml with lysis buffer. A solution of 50% PEG 8000 in lysis buffer is added slowly to the supernatant to a final concentration of 7.5%. After rocking for 60 minutes at 4° C., the solution is centrifuged in JA-20 rotor (Beckman) at 15,000 rpm for 30 minutes at 4° C. Solid PEG 8000 is then added to the supernatant to a final concentration of 15%. After the rocking and centrifugation is repeated as above, the pellet is resuspended overnight at 4° C. in 10 ml of Buffer A (20 mM K2HPO4, pH 7.4). […] FAS protein concentration is determined using the Coomassie Plus Protein Assay Reagent (Pierce) according to manufacturer's specifications using BSA as a standard. […]
FAS activity is measured by monitoring the malonyl-CoA dependent oxidation of NADPH spectrophotometrically at OD340 in 96-well plates (Dils et al and Arslanian et al, 1975). […]
The assay is performed on a Molecular Devices SpectraMax Plus Spectrophotometer. […] Using the kinetic protocol, the wells are blanked on duplicate wells containing 100 μl of 100 mM K2HPO4, pH 6.5 and the plate is read at OD340 at 10 sec intervals for 5 minutes to measure any malonyl-CoA independent oxidation of NADPH. […] The plate is read again as above with the kinetic protocol to measure the malonyl-CoA dependent NADPH oxidation. […]

Row | SMILES | Weight Loss [1] | FAS (IC50) (purified human FAS)
1 | CCCCCCCCC1(C)SC(=O)C=C1OCC(=O)NNc1ccccc1Cl (stereo not drawn) [Compound 19, (5-Methyl-5-octyl-2-oxo-thiophen-4-yloxy)-acetic-acid-N′-(2-chlorophenyl)-hydrazide] | 60 mg/kg: +3.0% (day 1) | Neg
2 | CCCCCCCCC1(C)SC(=O)C=C1OCC(=O)NNC(=O)c1ccncc1 (stereo not drawn) [Compound 20] | – | Neg
